# Source: patent US7605241B2, “Synthesis of inhibitors of p90Rsk” (University of Virginia Patent Foundation, priority 2005, dated 2009)
# Columns and labels:
# MEK = conditions: upstream kinase; cited from earlier work
# Raf = conditions: upstream kinase; cited from earlier work
# PKC = conditions: upstream kinase; cited from earlier work
# p90 RSK = p90 RSK (Homo sapiens, UniProt P51812); test: inhibition of the kinase activity of p90 RSK (Table 1); assay type: biochemical
# Description: Methods for testing the ability of SL0101, and analogs and derivatives thereof, synthesized according to the methods disclosed herein, to inhibit p90 ribosomal S6 kinase (RSK) activity and cellular and metabolic processes downstream from RSK activity, are known to those of ordinary skill in the art. Some specific assays are provided in citation number 5 (Smith et al., Cancer Res., 2005, 65:1027), which is incorporated by reference in its entirety. The assays include various kinase assays, cell cycle analysis, gene silencing, and analysis of cells and tissues in vitro and in vivo.
# Some specific assays are provided in citation number 5 (Smith et al., Cancer Res., 2005, 65:1027), which is incorporated by reference in its entirety.
# Sequence of p90 RSK (P51812 whole entry): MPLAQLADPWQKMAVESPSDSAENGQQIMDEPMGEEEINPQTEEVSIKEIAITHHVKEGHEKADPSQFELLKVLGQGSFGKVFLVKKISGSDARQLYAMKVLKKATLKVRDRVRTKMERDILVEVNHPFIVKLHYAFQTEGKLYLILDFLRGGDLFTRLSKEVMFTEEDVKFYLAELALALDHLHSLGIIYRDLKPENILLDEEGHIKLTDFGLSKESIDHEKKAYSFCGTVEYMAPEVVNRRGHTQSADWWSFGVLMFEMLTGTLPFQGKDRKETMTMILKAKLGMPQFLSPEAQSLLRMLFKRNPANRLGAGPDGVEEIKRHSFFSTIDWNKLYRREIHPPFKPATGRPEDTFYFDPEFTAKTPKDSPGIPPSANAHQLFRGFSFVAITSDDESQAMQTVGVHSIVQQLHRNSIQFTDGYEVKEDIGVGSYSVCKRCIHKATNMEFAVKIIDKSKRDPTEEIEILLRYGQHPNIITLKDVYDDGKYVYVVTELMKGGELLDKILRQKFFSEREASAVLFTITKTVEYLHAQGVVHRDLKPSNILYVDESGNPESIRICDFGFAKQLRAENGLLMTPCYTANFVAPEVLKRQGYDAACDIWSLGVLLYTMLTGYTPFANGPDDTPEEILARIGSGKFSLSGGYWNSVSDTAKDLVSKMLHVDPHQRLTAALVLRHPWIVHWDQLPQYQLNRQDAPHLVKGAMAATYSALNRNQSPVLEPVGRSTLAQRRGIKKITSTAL
IC50 (p90 RSK) [nM],SMILES,inhibition of MEK (MEK),inhibition of Raf (Raf),inhibition of PKC (PKC)
,CC(=O)OC1C(C)OC(Oc2c(-c3ccc(O)cc3)oc3cc(O)cc(O)c3c2=O)C(O)C1OC(C)=O (centres unmarked) [SL0101-1],not to inhibit,not to inhibit,not to inhibit
189,CC(=O)OC1C(C)OC(Oc2c(-c3ccc(O)cc3)oc3cc(O)cc(O)c3c2=O)C(O)C1O (centres unmarked) [SL0101-2],,,
580,CC(=O)OC1C(C)OC(Oc2c(-c3ccc(O)cc3)oc3cc(O)cc(O)c3c2=O)C(OC(C)=O)C1O (centres unmarked) [SL0101-3],,,
